The results in this text go back to BindingDB's records for doi:10.1016/j.ejmech.2015.10.016 (University of Groningen, 2015).

Structures are written as SMILES.

As usually defined, the IC50 is the concentration that inhibits the measured activity by half.

This test addresses T1, Histone acetyltransferase KAT8 (Homo sapiens, UniProt Q9H7Z6).
T1 sequence (Q9H7Z6 whole entry): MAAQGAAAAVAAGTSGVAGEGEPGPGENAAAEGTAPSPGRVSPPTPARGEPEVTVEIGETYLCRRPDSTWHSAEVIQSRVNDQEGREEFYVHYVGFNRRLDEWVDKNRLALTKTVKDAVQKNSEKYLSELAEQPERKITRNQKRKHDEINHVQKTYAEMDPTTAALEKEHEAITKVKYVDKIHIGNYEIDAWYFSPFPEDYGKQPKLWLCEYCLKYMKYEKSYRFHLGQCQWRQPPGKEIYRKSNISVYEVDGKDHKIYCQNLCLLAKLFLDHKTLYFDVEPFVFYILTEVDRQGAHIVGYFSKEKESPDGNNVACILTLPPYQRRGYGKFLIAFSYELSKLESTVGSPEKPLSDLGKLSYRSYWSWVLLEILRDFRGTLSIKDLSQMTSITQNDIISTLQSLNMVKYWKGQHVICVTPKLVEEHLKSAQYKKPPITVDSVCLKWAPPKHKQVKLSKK
In words: Inhibition of recombinant N-terminal His6-tagged KAT8 (unknown origin) expressed in Escherichia Coli BL21 DE3 cells assessed as reduction of Co A level using histone H4 substrate after 15 mins by CPM fluorescence assay.

As for `CC1=NN(c2ccc(C(=O)O)cc2)C(=O)/C1=C/c1ccc(-c2cc(C)c(C)cc2[N+](=O)[O-])o1`, the concentration for half-maximal inhibition (IC50) is > 631 µM. The result for `CCCCCCCCCCc1cccc(O)c1C(=O)O` reads 123 µM; that for `CCCCCCCCCCCCCCCc1ccc(O)c(C(=O)O)c1`, 263 µM. Turning to `CCCCCCCCCCc1ccc(O)c(C(=O)O)c1`, the half-inhibitory concentration (IC50) was 191 µM. In the case of `O=C(O)c1c(O)cccc1CCCCCCCCCCCO`, the IC50 is 525 µM. The same measure for `O=C(O)c1c(O)cccc1CCCCCO`: > 631 µM; for `CCCCCc1ccc(O)c(C(=O)O)c1`: > 631 µM; for `CCCCCCCSCC(=O)c1ccccc1O`: > 631 µM. Regarding `CCCCCc1cccc(O)c1C(=O)O` [6-Pentylsalicylic Acid], the IC50 is > 631 µM.
